Test results published in PubChem BioAssay AID328 (DTP/NCI, 2004).
Values joined by “and” are separate entries in the source; they are usually repeats but may differ in a detail not shown here. Equal entries are not always repeated. Inconclusive results and toxic doses are left out. Residues, ends and D or L forms follow the SMILES beside them. *: point of attachment. Cbz = O=C(OCc1ccccc1)*; OtBu = CC(C)(C)O*

Test system: BDF1 mice, P388 leukemia ip, median survival T/C
Assay: NCI In Vivo Anticancer Drug Screen. Data for tumor model P388 Leukemia (intraperitoneal) in B6D2F1 (BDF1) mice
Details: endpoint: median survival time, higher = longer survival
How it was run: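 Steps: implant the tumour, treat one group with compound and another with vehicle, record survival, then divide treated by control.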

[1] = dose: 25.0 mg/kg/injection, schedule: Q01DX009 (ip), vehicle: saline with Tween-80
[2] = dose: 50.0 mg/kg/injection, schedule: Q01DX009 (ip), vehicle: saline with Tween-80
[3] = dose: 100.0 mg/kg/injection, schedule: Q01DX009 (ip), vehicle: saline with Tween-80
[4] = dose: 200.0 mg/kg/injection, schedule: Q01DX009 (ip), vehicle: saline with Tween-80
[5] = dose: 100.0 mg/kg/injection, schedule: Q04DX003 (ip), vehicle: saline with Tween-80
[6] = dose: 200.0 mg/kg/injection, schedule: Q04DX003 (ip), vehicle: saline with Tween-80
[7] = dose: 400.0 mg/kg/injection, schedule: Q01DX009 (ip), vehicle: saline with Tween-80
[8] = dose: 400.0 mg/kg/injection, schedule: Q04DX003 (ip), vehicle: saline with Tween-80
[9] = dose: 100.0 mg/kg/injection, schedule: Q04DX003 (ip), vehicle: saline
[10] = dose: 200.0 mg/kg/injection, schedule: Q04DX003 (ip), vehicle: saline
[11] = dose: 50.0 mg/kg/injection, schedule: Q01DX009 (ip), vehicle: saline
[12] = dose: 100.0 mg/kg/injection, schedule: Q01DX009 (ip), vehicle: saline

CCC[n+]1ccc(/C=N\NC(N)=S)c2ccccc21
T/C [1]: 94 % of control
T/C [2]: 103 % of control
T/C [3]: 122 % of control
T/C [4]: 122 % of control

CCCCCNC(=O)Nc1cccc(Cl)c1C
T/C (dose: 6.25 mg/kg/injection, schedule: Q01DX009 (ip), vehicle: saline with Tween-80): 116 % of control
T/C (dose: 12.5 mg/kg/injection, schedule: Q01DX009 (ip), vehicle: saline with Tween-80): 109 % of control
T/C [1]: 108 % of control
T/C [2]: 99 % of control

O=NN(CCCl)C(=O)NC1C2CC3CC(C2)CC1C3 (configuration not stated)
T/C (dose: 5.56 mg/kg/injection, schedule: Q01DX009 (ip), vehicle: other): 207 % of control
T/C (dose: 8.3 mg/kg/injection, schedule: Q04DX003 (ip), vehicle: other): 159 % of control
T/C (dose: 8.33 mg/kg/injection, schedule: Q01DX009 (ip), vehicle: other): 287 % of control
T/C (dose: 12.5 mg/kg/injection, schedule: Q01DX009 (ip), vehicle: other): 281 % of control and 305 % of control
T/C (dose: 12.5 mg/kg/injection, schedule: Q04DX003 (ip), vehicle: other): 263 % of control
T/C (dose: 18.7 mg/kg/injection, schedule: Q01DX009 (ip), vehicle: other): 188 % of control
T/C (dose: 18.7 mg/kg/injection, schedule: Q04DX003 (ip), vehicle: other): 222 % of control
T/C (dose: 25.0 mg/kg/injection, schedule: Q01DX009 (ip), vehicle: other): 231 % of control
T/C (dose: 50.0 mg/kg/injection, schedule: Q01DX009 (ip), vehicle: other): 100 % of control

Cc1cc(C)cc(NC(=O)c2ccccc2N)c1
T/C [3]: 95 % of control
T/C [5]: 109 % of control
T/C [4]: 95 % of control
T/C [6]: 90 % of control
T/C [7]: 104 % of control
T/C [8]: 100 % of control

CCC[P+](c1ccccc1)(c1ccccc1)c1ccccc1
T/C (dose: 2.0 mg/kg/injection, schedule: Q01DX009 (ip), vehicle: saline): 111 % of control
T/C (dose: 4.0 mg/kg/injection, schedule: Q01DX009 (ip), vehicle: saline): 115 % of control
T/C (dose: 8.0 mg/kg/injection, schedule: Q01DX009 (ip), vehicle: saline): 123 % of control

O=c1cn[nH]c(=O)[nH]1
T/C (dose: 62.5 mg/kg/injection, schedule: Q01DX010 (ip), vehicle: saline): 100 % of control
T/C (dose: 125.0 mg/kg/injection, schedule: Q01DX010 (ip), vehicle: saline): 100 % of control
T/C (dose: 250.0 mg/kg/injection, schedule: Q01DX010 (ip), vehicle: saline): 100 % of control
T/C (dose: 500.0 mg/kg/injection, schedule: Q01DX010 (ip), vehicle: saline): 95 % of control

COc1ccc(CN2CC(C)NC(C)C2)cc1 (configuration not stated)
T/C (dose: 3.12 mg/kg/injection, schedule: Q01DX009 (ip), vehicle: water): 108 % of control
T/C (dose: 6.25 mg/kg/injection, schedule: Q01DX009 (ip), vehicle: water): 103 % of control
T/C (dose: 12.5 mg/kg/injection, schedule: Q01DX009 (ip), vehicle: water): 95 % of control
T/C (dose: 25.0 mg/kg/injection, schedule: Q01DX009 (ip), vehicle: water): 91 % of control
T/C (dose: 50.0 mg/kg/injection, schedule: Q01DX009 (ip), vehicle: water): 117 % of control
T/C (dose: 100.0 mg/kg/injection, schedule: Q01DX009 (ip), vehicle: water): 100 % of control
T/C (dose: 100.0 mg/kg/injection, schedule: Q04DX003 (ip), vehicle: water): 99 % of control
T/C (dose: 200.0 mg/kg/injection, schedule: Q01DX009 (ip), vehicle: water): 98 % of control
T/C (dose: 300.0 mg/kg/injection, schedule: Q01DX009 (ip), vehicle: water): 117 % of control
T/C (dose: 400.0 mg/kg/injection, schedule: Q01DX009 (ip), vehicle: water): 97 % of control

COC(=O)C(CCC(=O)OC(C)(C)C)NC(=O)C(NC(=O)OCc1ccccc1)C(C)C (stereo not drawn) (Cbz-Val-Glu(OtBu)-OMe; configuration not given here)
T/C [3]: 100 % of control
T/C [4]: 100 % of control
T/C [7]: 95 % of control

O=c1[nH]c2nc(Cl)c(Cl)nc2[nH]1
T/C (dose: 50.0 mg/kg/injection, schedule: Q04DX003 (ip), vehicle: saline): 113 % of control
T/C [9]: 106 % of control
T/C [10]: 111 % of control

ClCCN(CCCl)CCN1c2ccccc2Sc2ccccc21
T/C (dose: 0.79 mg/kg/injection, schedule: Q01DX009 (ip), vehicle: Klucel (hydroxypropylcellulose) (HPC)): 90 % of control
T/C (dose: 1.1 mg/kg/injection, schedule: Q01DX009 (ip), vehicle: Klucel (hydroxypropylcellulose) (HPC)): 90 % of control
T/C (dose: 2.5 mg/kg/injection, schedule: Q01DX009 (ip), vehicle: saline with Tween-80): 150 % of control
T/C (dose: 4.0 mg/kg/injection, schedule: Q01DX009 (ip), vehicle: Klucel (hydroxypropylcellulose) (HPC)): 170 % of control
T/C (dose: 5.0 mg/kg/injection, schedule: Q01DX009 (ip), vehicle: saline with Tween-80): 186 % of control
T/C (dose: 9.37 mg/kg/injection, schedule: Q01DX009 (ip), vehicle: Klucel (hydroxypropylcellulose) (HPC)): 150 % of control
T/C (dose: 10.0 mg/kg/injection, schedule: Q01DX009 (ip), vehicle: saline with Tween-80): 186 % of control
T/C (dose: 12.5 mg/kg/injection, schedule: Q04DX003 (ip), vehicle: Klucel (hydroxypropylcellulose) (HPC)): 160 % of control
T/C (dose: 17.0 mg/kg/injection, schedule: Q04DX003 (ip), vehicle: Klucel (hydroxypropylcellulose) (HPC)): 166 % of control
T/C (dose: 17.5 mg/kg/injection, schedule: Q04DX003 (ip), vehicle: Klucel (hydroxypropylcellulose) (HPC)): 185 % of control
T/C (dose: 20.0 mg/kg/injection, schedule: Q01DX009 (ip), vehicle: saline with Tween-80): 95 % of control
T/C (dose: 23.0 mg/kg/injection, schedule: Q04DX003 (ip), vehicle: Klucel (hydroxypropylcellulose) (HPC)): 109 % of control
T/C (dose: 25.0 mg/kg/injection, schedule: Q04DX003 (ip), vehicle: Klucel (hydroxypropylcellulose) (HPC)): 175 % of control and 200 % of control
T/C (dose: 35.0 mg/kg/injection, schedule: Q04DX003 (ip), vehicle: Klucel (hydroxypropylcellulose) (HPC)): 109 % of control and 210 % of control
T/C (dose: 37.0 mg/kg/injection, schedule: Q04DX003 (ip), vehicle: Klucel (hydroxypropylcellulose) (HPC)): 185 % of control
T/C (dose: 37.5 mg/kg/injection, schedule: Q01DX009 (ip), vehicle: Klucel (hydroxypropylcellulose) (HPC)): 170 % of control
T/C (dose: 50.0 mg/kg/injection, schedule: Q04DX003 (ip), vehicle: Klucel (hydroxypropylcellulose) (HPC)): 109 % of control
T/C (dose: 50.0 mg/kg/injection, schedule: Q04DX003 (ip), vehicle: saline with Tween-80): 104 % of control

Cc1ccc(NC(=O)c2ccccc2Cl)c(C)c1
T/C [5]: 100 % of control
T/C [6]: 100 % of control
T/C [8]: 109 % of control

CCc1cc(CC)n2cnnc2n1
T/C [11]: 89 % of control
T/C [12]: 89 % of control

O=c1[nH]c(=O)n(C2CC(O)C(CO)O2)cc1Br (configuration not stated)
T/C (dose: 100.0 mg/kg/injection, schedule: Q04DX003 (ip), vehicle: saline sonified): 100 % of control
T/C (dose: 200.0 mg/kg/injection, schedule: Q04DX003 (ip), vehicle: saline sonified): 100 % of control
T/C (dose: 400.0 mg/kg/injection, schedule: Q04DX003 (ip), vehicle: saline sonified): 100 % of control

O=C(Nc1ccc(S(=O)(=O)O)cc1)c1ccc([N+](=O)[O-])cc1
T/C (dose: 25.0 mg/kg/injection, schedule: Q01DX009 (ip), vehicle: saline): 100 % of control
T/C [11]: 100 % of control
T/C [12]: 100 % of control
T/C [9]: 100 % of control
T/C (dose: 176.0 mg/kg/injection, schedule: Q04DX003 (ip), vehicle: saline with Tween-80): 100 % of control
T/C [10]: 100 % of control
T/C (dose: 264.0 mg/kg/injection, schedule: Q04DX003 (ip), vehicle: saline with Tween-80): 110 % of control
T/C (dose: 264.0 mg/kg/injection, schedule: Q04DX003 (ip), vehicle: saline): 95 % of control and 120 % of control
T/C [8]: 100 % of control

Nc1nc(SN=Nc2ccc(S(N)(=O)=O)cc2)c2[nH]cnc2n1
T/C (dose: 3.75 mg/kg/injection, schedule: Q01DX009 (ip), vehicle: saline with Tween-80): 120 % of control
T/C (dose: 7.5 mg/kg/injection, schedule: Q01DX009 (ip), vehicle: saline with Tween-80): 104 % of control
T/C (dose: 15.0 mg/kg/injection, schedule: Q01DX009 (ip), vehicle: saline with Tween-80): 91 % of control

COc1ccc(CNCCc2ccc(O)c(OC)c2)cc1O
T/C [2]: 100 % of control
T/C [3]: 102 % of control
T/C [4]: 107 % of control
